For one test, the target named is T1, hormone sensitive lipase (Homo sapiens, UniProt Q05469).
T1 sequence (Q05469 1-1076): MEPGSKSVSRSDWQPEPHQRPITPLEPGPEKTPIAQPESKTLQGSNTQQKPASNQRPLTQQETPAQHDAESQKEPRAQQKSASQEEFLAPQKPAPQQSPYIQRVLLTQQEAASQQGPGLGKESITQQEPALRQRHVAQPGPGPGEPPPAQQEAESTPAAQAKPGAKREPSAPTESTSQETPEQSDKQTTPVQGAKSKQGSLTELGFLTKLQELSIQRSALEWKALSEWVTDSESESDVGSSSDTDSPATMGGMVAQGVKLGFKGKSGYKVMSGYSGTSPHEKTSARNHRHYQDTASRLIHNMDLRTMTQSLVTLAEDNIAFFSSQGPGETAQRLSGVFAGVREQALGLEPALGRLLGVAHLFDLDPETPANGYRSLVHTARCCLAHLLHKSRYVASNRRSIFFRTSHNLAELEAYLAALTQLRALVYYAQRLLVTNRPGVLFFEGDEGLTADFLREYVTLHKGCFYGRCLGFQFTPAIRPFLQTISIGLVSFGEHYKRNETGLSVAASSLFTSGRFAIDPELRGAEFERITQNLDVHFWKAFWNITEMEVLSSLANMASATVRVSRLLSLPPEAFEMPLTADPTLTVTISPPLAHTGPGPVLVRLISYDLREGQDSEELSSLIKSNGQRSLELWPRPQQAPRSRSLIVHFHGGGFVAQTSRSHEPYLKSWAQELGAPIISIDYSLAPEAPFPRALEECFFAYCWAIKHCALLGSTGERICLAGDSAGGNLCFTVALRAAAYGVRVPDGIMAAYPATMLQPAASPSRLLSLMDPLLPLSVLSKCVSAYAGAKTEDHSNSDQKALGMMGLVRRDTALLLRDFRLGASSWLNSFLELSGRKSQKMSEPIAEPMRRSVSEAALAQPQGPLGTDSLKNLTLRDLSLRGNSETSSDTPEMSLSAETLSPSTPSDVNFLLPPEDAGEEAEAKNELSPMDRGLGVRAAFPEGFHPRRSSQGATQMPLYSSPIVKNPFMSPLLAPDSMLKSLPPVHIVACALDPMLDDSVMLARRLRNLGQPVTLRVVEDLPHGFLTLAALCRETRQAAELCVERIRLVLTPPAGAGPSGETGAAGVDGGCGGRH
Description: TEST 3190.1 HSL-FL: percent inhibition of hormone sensitive lipase at 10 μM, fluorochrome-labeled triacylglyceride emulsion. In kind it is biochemical. The note with it: 10 μM sample concentration; percent activity relative to a non-inhibited sample; 30 min preincubation 25° C., 120 min at 37° C. On the procedure:
3190.1: Assay for determination of percent inhibition of hormone sensitive lipase by compound at 10 μM sample concentration.
A lipid emulsion with fluorochrome-labeled triacylglyceride and phospholipid is used as substrate with a standard concentration of highly purified HSL (12 μg/mL initial concentration corresponding to 600 ng/mL final concentration). BSA is added as product receptor. The transfer of the fluorochrome from the lipid phase to the water (BSA) phase changes the fluorescent properties of the fluorochrome. The changes can be monitored on a fluorimeter with an excitation wavelength of 450 nm and an emission wavelength of 545 nm.
Compound and HSL (2 μL compound, 10 μL enzyme and 70 μL PED-BSA buffer) is pre-incubated for 30 min at 25° C. before addition of substrate (100 μL). Amount of formed product is measured after 120 min incubation at 37° C.
Results are given as percent activity relative to a non-inhibited sample (no compound).

The target of another test is T2, HSL (Homo sapiens, UniProt Q05469).
T2 sequence (Q05469 1-1076): T1 sequence (Q05469 1-1076)
As to the kind of experiment: TEST 3180.2 HSL: percent inhibition at 10 μM, 3H-Triolein lipid emulsion. In kind it is biochemical. Conditions: 10 μM concentration; percent activity relative to an un-inhibited sample; 30 min preincubation, 30 min reaction at 25° C.; read-out: TEST 3180.2 HSL Activity (%).

At hormone sensitive lipase, `CC1(C)OB(c2ccc(F)c(Cl)c2)OC1(C)C` [Example 29, 2-(3-Chloro-4-fluorophenyl)-4,4,5,5-tetramethyl-[1,3,2]dioxaborolane] registered an activity at 10 µM of 36%.
`CC1(C)OB(c2cc(Cl)cc(Cl)c2)OC1(C)C` [Example 28, 2-(3,5-Dichlorophenyl)-4,4,5,5-tetramethyl-[1,3,2]dioxaborolane] showed an activity at 10 µM at hormone sensitive lipase of 43%.
For the compound `CC1(C)COB(c2cc(Cl)cc(Cl)c2)OC1` [Example 21, 2-(3,5-Dichlorophenyl)-5,5-dimethyl-[1,3,2]dioxaborinane], the activity at 10 µM on hormone sensitive lipase is 42%.
Compound `Fc1cc(F)cc(B2OCCNCCO2)c1` [Example 4, 2-(3,5-Difluorophenyl)-[1,3,6,2]dioxazaborocane] gave an activity at 10 µM at hormone sensitive lipase of 32%.
Take `Fc1cc(B2OCCNCCO2)cc(F)c1F` [Example 9, 2-(3,4,5-Trifluorophenyl)-[1,3,6,2]dioxazaborocane]: on hormone sensitive lipase, the activity at 10 µM was determined as 32%.
The same measure, in the same setting: the result for `CC1(C)COB(c2cccc(Br)c2)OC1` [Example 17, 2-(3-Bromophenyl)-5,5-dimethyl-[1,3,2]dioxaborinane] reads 11%.
`CC1(C)COB(c2ccc(Cl)s2)OC1` [Example 2, 2-(5-Chlorothiophen-2-yl)-5,5-dimethyl-[1,3,2]dioxaborinane] had an activity at 10 µM at hormone sensitive lipase of 17%.
Same read-out and setting: under `CC1(C)OB(c2cccc(Cl)c2)OC1(C)C` [Example 30, 2-(3-Chlorophenyl)-4,4,5,5-tetramethyl-[1,3,2]dioxaborolane] stands 40%.
Same read-out and setting: the result for `Fc1cccc(B2OCCNCCO2)c1` [Example 7, 2-(3-Fluorophenyl)-[1,3,6,2]dioxazaborocane] reads 80%; that for `Clc1cc(Cl)cc(B2OCCNCCO2)c1` [Example 14, 2-(3,5-Dichlorophenyl)-[1,3,6,2]dioxazaborocane], 40%.
The compound `FC(F)(F)c1cccc(B2OCCNCCO2)c1` [Example 8, 2-(3-Trifluoromethylphenyl)-[1,3,6,2]dioxazaborocane] returned an activity at 10 µM at hormone sensitive lipase of 29%.
For the compound `CC1(C)OB(c2ccc(Cl)s2)OC1(C)C` [Example 1, 2-(5-Chlorothiophen-2-yl)-4,4,5,5-tetramethyl-[1,3,2]dioxaborolane], the activity at 10 µM on hormone sensitive lipase turned out to be 17%.
On hormone sensitive lipase, `CC1(C)OB(c2cccc(Br)c2)OC1(C)C` [Example 25, 2-(3-Bromophenyl)-4,4,5,5-tetramethyl-[1,3,2]dioxaborolane] yielded an activity at 10 µM of 28%.
Same read-out and setting: under `Fc1ccc(B2OCCNCCO2)cc1Cl` [Example 15, 2-(3-Chloro-4-fluorophenyl)-[1,3,6,2]dioxazaborocane] stands 39%; under `CC1(C)COB(c2cccc(C(F)(F)F)c2)OC1` [Example 11, 5,5-Dimethyl-2-(3-trifluoromethylphenyl)-[1,3,2]dioxaborinane], 31%.
The same measure, in the same setting: under `Brc1cccc(B2OCCNCCO2)c1` [Example 5, 2-(3-Bromophenyl)-[1,3,6,2]dioxazaborocane] stands 34%.
On the same count and under the same terms, the result for `O=Cc1cccc(B(O)O)c1` [Example 76, 3-Formylphenylboronic acid] reads 80%; that for `COc1ccc(Cl)cc1B1OCCNCCO1` [Example 12, 2-(5-Chloro-2-methoxyphenyl)-[1,3,6,2]dioxazaborocane], 39%.
Turning to `Clc1cccc(B2OCCNCCO2)c1` [Example 6, 2-(3-Chlorophenyl)-[1,3,6,2]dioxazaborocane], at hormone sensitive lipase, the activity at 10 µM turned out to be 36%.
Same read-out and setting: the result for `CC1(C)COB(c2cccc(F)c2)OC1` [Example 23, 2-(3-Fluorophenyl)-5,5-dimethyl-[1,3,2]dioxaborinane] reads 46%.
With `Cc1csc(B2OCCNCCO2)c1` [Example 16, 2-(4-Methylthiophen-2-yl)-[1,3,6,2]dioxazaborocane], at hormone sensitive lipase, the activity at 10 µM worked out at 61%.
Turning to `Cc1csc(B2OC(C)(C)C(C)(C)O2)c1` [Example 32, 4,4,5,5-Tetramethyl-2-(4-methylthiophen-2-yl)-[1,3,2]dioxaborolane], the activity at 10 µM on hormone sensitive lipase turned out to be 52%.
As to `CC1(C)OB(c2cccc(C(F)(F)F)c2)OC1(C)C` [Example 31, 4,4,5,5-Tetramethyl-2-(3-trifluoromethylphenyl)-[1,3,2]dioxaborolane], the activity at 10 µM at hormone sensitive lipase came to 27%.
Same read-out and setting: the result for `CC1(C)COB(c2cccc(Cl)c2)OC1` [Example 10, 2-(3-Chlorophenyl)-5,5-dimethyl-[1,3,2]dioxaborinane] reads 39%; that for `CC1(C)COB(c2cc(F)c(F)c(F)c2)OC1` [Example 19, 5,5-Dimethyl-2-(3,4,5-trifluorophenyl)-[1,3,2]dioxaborinane], 49%.
On the same count and under the same terms, the result for `OB(O)c1ccc2[nH]ccc2c1` [Example 75, 5-INDOLYL BORONIC ACID] reads 100%.
In turn, `CN(C)C(=O)c1ccc(B(O)O)cc1` [Example 77, 4-(N,N-DIMETHYLCARBAMOYL)PHENYLBORONIC ACID] came in with an activity at 10 µM on hormone sensitive lipase of 98%.
Regarding `Cc1csc(B2OCC(C)(C)CO2)c1` [Example 24, 5,5-Dimethyl-2-(4-methylthiophen-2-yl)-[1,3,2]dioxaborinane], the activity at 10 µM on hormone sensitive lipase is 58%.
`OB(O)c1ccc(Cl)c(Cl)c1` [Example 74, 3,4-Dichlorophenylboronic acid] returned an activity at 10 µM on hormone sensitive lipase of 53%.
The compound `COc1ccc(Cl)cc1B1OCC(C)(C)CO1` [Example 18, 2-(5-Chloro-2-methoxyphenyl)-5,5-dimethyl-[1,3,2]dioxaborinane] had an activity at 10 µM on hormone sensitive lipase of 43%.
The same measure, in the same setting: under `FC(F)(F)Oc1cccc(B2OCCNCCO2)c1` [Example 13, 2-(3-Trifluoromethoxyphenyl)-[1,3,6,2]dioxazaborocane] stands 26%.
Regarding `CC1(C)COB(c2ccc(F)c(Cl)c2)OC1` [Example 22, 2-(3-Chloro-4-fluorophenyl)-5,5-dimethyl-[1,3,2]dioxaborinane], the activity at 10 µM on hormone sensitive lipase was 31%.
On the same count and under the same terms, the result for `CC1(C)OB(c2cccc(OC(F)(F)F)c2)OC1(C)C` [Example 27, 4,4,5,5-Tetramethyl-2-(3-trifluoromethoxyphenyl)-[1,3,2]dioxaborolane] reads 29%.
As to `Clc1ccc(B2OCCNCCO2)s1` [Example 3, 2-(5-Chlorothiophen-2-yl)-[1,3,6,2]dioxazaborocane], the activity at 10 µM on hormone sensitive lipase was 19%.
As to `COc1ccc(F)cc1B(O)O` [Example 73, 2-Methoxy5-fluorophenylboronic acid], the activity at 10 µM on HSL was 62%.
Still for that read-out and setting: the result for `OB(O)c1cc(F)ccc1F` [Example 67, 2,5-Difluorophenylboronic acid] reads 34%; that for `OB(O)c1cc(Cl)cc(Cl)c1` [Example 57, 3,5-Dichlorophenylboronic acid], 46%; that for `OB(O)c1cccc(F)c1F` [Example 66, 2,3-Difluorophenylboronic acid], 55%.
At hormone sensitive lipase, `CC1(C)COB(c2cccc(OC(F)(F)F)c2)OC1` [Example 20, 5,5-Dimethyl-2-(3-trifluoromethoxyphenyl)-[1,3,2]dioxaborinane] returned an activity at 10 µM of 27%.
